Reference: patent US9526766B2, “Potentiation of antibiotic treatment with a protein-lipid complex” (priority 2012, dated 2016)
Entries after “also recorded” stand apart in the source; their conditions may differ. Read-outs that look alike come from different tables or passages of the source.

Legend:
[1] = system: Streptococcus pneumoniae biofilms; assay: Static biofilm model, viable counts; format: cell-based; settings: for Biofilm killing: alone or combined; for Minimum antibiotic concentration for bactericidal (>3 log10) activity on biofilms: within 4-6 hours, antibiotic alone
Protocol: Methodology: Pneumococci were grown statically in CDM and S. aureus were grown in trypic soy medium to mid-logarithmic phase (OD600=0.5), washed, and resuspended in fresh pre-warmed medium to a density of 2×10^4 CFU in 500 μl volume, and suspensions were used to seed sterile round glass coverslips in the bottom of polystyrene 24-well plates with or without a substratum of confluent H292 epithelial cells. Biofilms were cultured at 34° C. in 5% CO2 for indicated times with change of culture media every 12 hours and to assess biomass and antibiotic resistance by viable counts (as described).
Biofilms were then washed in PBS and detached by scraping the surface in the presence of 100 μL PBS followed by a rinse with 100 μL PBS. Collected cells were sonicated in a sonication water bath for 2 s followed by vortexing twice for 20 seconds at high speed and the dispersed biofilm cells were used to determine viable CFUs per ml from diluted samples plated and grown on blood agar.
Static Biofilm Model. Pneumococci were grown in CDM to mid-logarithmic phase (OD600=0.5), washed, and resuspended in fresh pre-warmed medium to a density of 2×10^4 CFUs in 500 μl volume, and suspensions were used to seed sterile round glass coverslips in the bottom of polystyrene 24-well plates with a substratum of confluent H292 epithelial cells as described. Biofilms were cultured at 34° C. in 5% CO2 for indicated times with change of culture media every 12 hours and used for SEM studies or to assess biomass and antibiotic resistance by viable plate counts.
Biofilms were then washed in PBS, dispersed by sonication, and collected by pipetting in 100 μL PBS followed by a rinse with 100 μL PBS. Collected cells were then vortexed twice for 20 seconds at high speed and the dispersed biofilm cells were used to determine viable CFUs per ml from diluted samples plated and grown on blood agar. Results are reported as the total number of CFUs per biofilm.

[2] = system: S. pneumoniae nasopharyngeal colonization; assay: Murine nasopharyngeal colonization model, intranasal treatment; format: in vivo, Streptococcus pneumoniae; settings: for Minimum antibiotic concentration for bactericidal (>3 log10) activity on murine nasopharyngeal colonization: mice, within 12 hours, antibiotic alone; for Colonization level / bacterial burden: mice colonized with SP670 for 48 hours, penicillin up to 100 μg (5,000 μg/ml) intranasally, 12 hours
Protocol: Methodology: Six-week-old female BALB/cByJ mice from Jackson Laboratories (Bar Harbor, Me., U.S.A.) were maintained in filter-top cages on standard laboratory chow and water ad libitum until use. Mice were colonized as described previously. In short, 20 μl of a bacterial suspension containing 5×10^6 CFUs of EF3030 pneumococci, 1×10^8 CFUs of SP670 pneumococci, or 5×10^7 NRS70 methicillin-resistant S. aureus in PBS were pipetted into the nares of non-anesthetized mice. […] Colonization burden was then assessed after euthanizing the animals by enumerating viable bacteria from harvested nasopharyngeal tissue after the nasal wash. Nasopharyngeal tissue was dissected out as described by removing the upper skull bone, and harvesting the tissue present in the nasal conchae with forceps. Bacterial load was measured by determining viable plate counts from the homogenized tissue.
Mice were colonized as described. In short, 20 μl of a bacterial suspension containing 5×10^6 CFUs of EF3030 pneumococci in PBS or 1×10^8 CFUs of SP670 pneumococci in PBS were pipetted into the nares of non-anesthetized mice. […] Colonization burden was then assessed after euthanizing the animals by enumerating viable bacteria both in a nasopharyngeal lavage obtained by injecting 100 μL PBS in the trachea of mice and collecting it as it flowed out the nares, and from harvested nasopharyngeal tissue after the nasal wash. Nasopharyngeal tissue was dissected out as described by removing the upper skull bone, and harvesting the tissue present in the nasal conchae with forceps. Bacterial load was measured by determining viable plate counts from the nasal lavage or from homogenized tissue.

[3] = system: Staphylococcus aureus; assay: MIC by broth microdilution, antibiotics with and without ALAFAC; format: cell-based; settings: for MIC: antibiotic alone
Protocol: Methodology: Minimal inhibitory concentrations (MICs) were determined in 96-well microtiter plates using the microdilution method according to approved standards of the CLSI except that Todd-Hewitt medium supplemented with 0.5% yeast extract, which yields reproducible MIC results was used as the test medium for S. pneumoniae. For the remaining species Mueller-Hinton medium was used as indicated by the CLSI standard. Each well contained two-fold dilutions of antibiotic, was seeded with a final bacterial concentration of 10^5 CFU/mL, and was incubated for 18 h at 37° C. in a Synergy II microplate reader (Biotek, Winooski, Vt.) where the OD600 was recorded every 5 minutes to monitor bacterial growth. The MIC was defined as the lowest concentration of antimicrobial agent solution at which no increase in OD600 was detected.
In vitro susceptibility tests. Minimal inhibitory concentrations (MICs) were determined in 96-well microtiter plates using the microdilution method according to approved standards of the CLSI as described previously. However, rather than Mueller-Hinton broth, Tryptic soy broth (TSB) was used for susceptibility testing as it is the common media used for Staphylococcal growth, and as it has shown more consistent results for a variety of antimicrobials when tested against Staphylococci. […] A two-fold dilution series of antibiotics in triplicate and in the presence or absence of ALAFAC was prepared in 96 well microtiter plates, and each well was seeded with a final bacterial concentration of 10^5 CFU/mL, and was incubated for 24 h at 37° C. in a Synergy 2 microplate reader (Biotek, Winooski, Vt.) where the Optical Density at 600 nm (OD600) was recorded every 5 minutes to monitor bacterial growth. The MIC was defined as the lowest concentration of antimicrobial agent solution where no increase in OD600 was detected.

[4] = D39 48 h biofilm (8.3 log10) on epithelial substratum, 250 μg/ml ALAFAC, 100 μg/ml penicillin
[5] = SP670 biofilm, ALAFAC 250 μg/mL, penicillin 100 μg/mL
[6] = ALAFAC 50 μg, alone or combined
[7] = EF3030 48 h biofilm (7.5 log), 100 μg/mL ALAFAC, 200 μg/ml gentamicin, 3 hours

CC1(C)S[C@@H]2[C@H](NC(=O)Cc3ccccc3)C(=O)N2[C@H]1C(=O)O [Penicillin, penicillin G]
Biofilm killing [1, 4]: not bactericidal | Minimum antibiotic concentration for bactericidal (>3 log10) activity on biofilms ([1]; S. pneumoniae D39 biofilm): >5000 μg/ml | Minimum antibiotic concentration for bactericidal (>3 log10) activity on biofilms ([1]; S. pneumoniae SP670 biofilm): >5000 μg/ml | Biofilm killing [1, 5]: almost complete resistance | Minimum antibiotic concentration for bactericidal (>3 log10) activity on murine nasopharyngeal colonization ([2]; SP670): >100 μg/dose | Colonization level / bacterial burden [2, 6]: no effect | Colonization level / bacterial burden ([2]; ALAFAC 50 μg, alone or combined, listed as Penicillin G): no effect | Colonization level / bacterial burden ([2]; ALAFAC 50 μg, alone or combined, listed as penicillin): no effect; also recorded: completely resistant | Colonization level / bacterial burden ([2]; ALAFAC 50 μg, alone or combined, listed as penicillin G): no change in colonization

COc1cccc(OC)c1C(=O)N[C@@H]1C(=O)N2[C@@H]1SC(C)(C)[C@@H]2C(=O)O [Methicillin, methicillin]
MIC ([3]; Staphylococcus aureus, S. aureus 10307570, read-out: MIC): 16 µg/mL | MIC ([3]; Staphylococcus aureus, S. aureus 11090306 (MSSA), read-out: MIC): 2 µg/mL | MIC ([3]; Staphylococcus aureus, S. aureus NRS1, read-out: MIC): > 128 µg/mL | MIC ([3]; Staphylococcus aureus, S. aureus NRS70, read-out: MIC): 32 µg/mL | MIC ([3]; Staphylococcus aureus, S. aureus NRS71, read-out: MIC): > 128 µg/mL | MIC ([3]; Staphylococcus aureus, S. aureus NRS100, read-out: MIC): > 128 µg/mL | MIC ([3]; Staphylococcus aureus, S. aureus NRS123, read-out: MIC): 32 µg/mL | MIC ([3]; Staphylococcus aureus, S. aureus NRS384, read-out: MIC): 16 µg/mL

gentamicin
MIC ([3]; S. aureus NRS1): >128 µg/mL | MIC ([3]; S. aureus NRS384): 1 µg/mL | Biofilm killing [1, 7]: 1.1 log | Biofilm bactericidal activity ([1]; EF3030 48 h biofilm, gentamicin 200 or 500 μg/mL alone or with 100 μg/mL ALAFAC, 3 hours): Neither concentration of gentamicin was bactericidal | Minimum antibiotic concentration for bactericidal (>3 log10) activity on biofilms ([1]; S. pneumoniae D39 biofilm): >600 μg/ml | Minimum antibiotic concentration for bactericidal (>3 log10) activity on biofilms ([1]; S. pneumoniae EF3030 biofilm): >600 μg/ml | Dose concentration required to eradicate nasal lavage-associated bacteria ([2]; EF3030, gentamicin alone): 1,500 μg/ml | Minimum antibiotic concentration for bactericidal (>3 log10) activity on murine nasopharyngeal colonization ([2]; EF3030): 100 μg/dose | Gentamicin dose at which reduction of bacterial burden starts ([2]; EF3030, nasal lavage, gentamicin alone): 3 μg/mouse | Gentamicin dose at which reduction of bacterial burden starts ([2]; EF3030, nasopharyngeal tissues, gentamicin alone): 10 μg/mouse

B1: ALAFAC: non-covalent complex of alpha-lactalbumin and fatty acid (oleic acid); labeled HAMLET or HL in drawings and tables (protein, UniProt P00709 20-142, looked up)
Alpha-lactalbumin: KQFTKCELSQLLKDIDGYGGIALPELICTMFHTSGYDTQAIVENNESTEYGLFQISNKLWCKSSQVPQSRNICDISCDKFLDDDITDDIMCAKKILDIKGIDYWLAHKALCTEKLEQWLCEKL
modifications: complexed with oleic acid
[HL] to sensitize ([3]; 10307570, sensitive to methicillin): 6 µM | [HL] to sensitize ([3]; 11090306, sensitive to methicillin): 0 µM | Additional ALAFAC required for equivalent adjuvant activity ([3]; Mueller Hinton broth versus TSB): approximately 20% | [HL] to sensitize ([3]; NRS1, sensitive to gentamicin): 48 µM | [HL] to sensitize ([3]; NRS1, sensitive to methicillin): 48 µM | [HL] to sensitize ([3]; NRS1, sensitive to vancomycin): 18 µM | [HL] to sensitize ([3]; NRS70, sensitive to methicillin): 3 µM | [HL] to sensitize ([3]; NRS71, sensitive to methicillin): 54 µM | [HL] to sensitize ([3]; NRS100, sensitive to methicillin): 18 µM | [HL] to sensitize ([3]; NRS123, sensitive to erythromycin): 0 µM | [HL] to sensitize ([3]; NRS123, sensitive to methicillin): 12 µM | [HL] to sensitize ([3]; NRS384, sensitive to erythromycin): 6 µM | [HL] to sensitize ([3]; NRS384, sensitive to gentamicin): 0 µM | [HL] to sensitize ([3]; NRS384, sensitive to methicillin): 6 µM | [HL] to sensitize ([3]; NRS384, sensitive to vancomycin): 0 µM | Concentration of ALAFAC alone without activity ([3]; any of the S. aureus strains tested): exceeding 5,000 μg/ml | ALAFAC concentration required to convert all antibiotic-resistant strains to sensitivity ([3]; methicillin, gentamicin, erythromycin and vancomycin): at most 54 μM | Biofilm killing [1, 4]: not bactericidal | Biofilm killing [1, 7]: no bactericidal activity | Biofilm killing [1, 5]: almost complete resistance | Bacterial burden, nasopharyngeal tissue and nasal lavage ([2]; mice colonized with EF3030 for 48 hours, single intranasal dose, ALAFAC 50 μg, gentamicin, alone or combined, 6 hours): no decrease in bacterial burden | Colonization level / bacterial burden [2, 6]: no effect; also recorded: no decrease in the pneumococcal burden
